Measured values published in article PMC10150366, “Discovery of an In Vivo Chemical Probe for BCL6 Inhibition by Optimization of Tricyclic Quinolinones” (Journal of Medicinal Chemistry, 2023).
≈ marks a conversion by molar mass, not a printed value. Where “and” joins values, the source holds several entries; their conditions need not be identical. Equal entries are not always repeated. Where two headings read alike, the source gives them in different places. Blank lines part the entries; values can stand above or below the compound they belong to.

Assays:
[1] = cited from earlier work
BCL6 = conditions: OCI-Ly1 cells; read-out: MSD degrader assay [OCI-Ly1] DC50; cited from earlier work
[2] = biological target: T1, BCL6-SMRT (NCOR2) corepressor protein-protein interaction (Homo sapiens, UniProt P41182); assay: NanoBRET cellular assay (HEK293T); assay type: cell-based; conditions: for IC90: read-out: BCL6 NanoBRET IC90 individual replicates
T1 construct: DNA encoding full length BCL6 and SMRT; expressed in transfected cells; host or cells: HEK293T
Description: Test compounds in DMSO or DMSO alone
concentration in 0.7% v/v DMSO final.
(also called NCOR2) corepressor protein-protein interaction. DNA encoding full length BCL6 and SMRT
fusion proteins BCL6-nanoLuc and SMRT-HaloTag, respectively. HEK293T cells were plated […] in T75
At the time of assay, compounds
dispensing (Labcyte Inc.). Frozen transfected HEK293T cells were thawed, centrifuged and freezing
DMSO final concentration.
After a short centrifugation the
(1st emission filter) / 450-80 nm (2nd emission filter). The % inhibition at each test concentration was
sigmoidal four-parameter logistic fit equation. […]

human BCL6 BTB domain = human BCL6 BTB domain (Homo sapiens, UniProt P41182); assay: BCL6 TR-FRET assay; assay type: binding; conditions: for BCL6 TR-FRET pIC50 mean / IC90: Table S1; for IC90: read-out: BCL6 TR-FRET IC90 Geometric Mean
Description: 1. Supplementary experimental: protein production, purification and crystallography 1.1 BCL6 constructs used for assays and crystallography […]
cleavage site. For the TR-FRET assay, the Trx-6His-HRV3C-BCL6 protein construct was used without cleaving the tag, as a 6His was needed to bind to the anti-6His-Terbium antibody. […]
For both plasmid constructs described above, transformed BL21-AI E. coli cells were grown in LB media […]
Expression was carried out at 18 °C for 18 hours. Cells were harvested by centrifugation (5500 g for 30 minutes at 4 °C) and stored at -80 °C.
Cells were re-suspended in a buffer composed of 20 mM Tris pH 8, 250 mM NaCl, 1 mM MgCl2, 0.5 mM […]
lysed by sonication followed by centrifugation at 21,000 g for 45 minutes at 4 °C. […]
ResourceQ and gel filtration using a HiLoad 26/60 Superdex75 column in a buffer containing 20 mM HEPES […]
The final protein was assessed for purity and molar mass by SDS-PAGE and high-resolution mass spectrometry, respectively.
For the uncleaved Trx-6His-HRV3C-BCL6 protein construct to be used in TR-FRET, the protein was directly eluted from the HisTrap FF column without HRV-3C treatment, and submitted to Superdex75 gel filtration […]
Test compounds in DMSO or DMSO alone […]
concentration in 0.7% v/v DMSO final. […]

[3] = system: Caco-2 human colon carcinoma cell line; conditions: cited from earlier work
[4] = Microsomal clearance, mouse liver microsomes
[5] = logD7.4 assay (Chrom log D method); assay type: physicochemical
[6] = system: Caco-2 human colon carcinoma cell line; conditions: pH 7.4
[7] = NMR aqueous solubility assay; conditions: HEPES buffer, aqueous with cosolvent or surfactant or cyclodextrin
[8] = supplement, read-out: BCL6 NanoBRET IC50 Geometric Mean
[9] = geometric mean of at least three replicates, read-out: NanoBRET IC50
[10] = single replicates, Table S2, read-out: BCL6 NanoBRET IC50 individual replicates
[11] = geometric mean of at least three replicates, read-out: BCL6 TR-FRET IC50

Compound: C[C@@H]1C[C@H](O)CN(c2ncc(Cl)c(Nc3ccc4c(c3)c3c(c(=O)n4C)OCC(F)(F)[C@H](C4CC4)N3)n2)C1 [CCT373567]
Aq. Sol. [1]: 8 µM | DC50 (BCL6): > 10000 nM | IC50 [2, 8]: 25.9 nM | IC50 (human BCL6 BTB domain; BCL6 TR-FRET IC50 Geometric Mean): 2.8 nM | CACO-2 A-B [3]: < 3e-06 cm/s | CACO-2 (ER) ([3]; efflux ratio): > 16

IC90 ([2]; HEK-293T, Table S2): 796 nM | decrease in cellular potency compared to CCT372064 ([2]; NanoBRET): 5 fold | BCL6 NanoBRET pIC50 mean ([2]; Table S2): 7.1618 | IC50 [2, 9]: 68 nM | IC50 [2, 10]: 106 nM and 43.5 nM and 71 nM | IC50 [2, 8]: 68.9 nM | BCL6 TR-FRET pIC50 mean (human BCL6 BTB domain): 7.873 | IC90 (human BCL6 BTB domain): 109 nM | IC50 (human BCL6 BTB domain; [11]): 13 nM | IC50 (human BCL6 BTB domain; supplement, read-out: BCL6 TR-FRET IC50 Geometric Mean): 13.4 nM | microsomal CLint at 0.5 h, 1 µM ([4]; female, CD1, mouse, liver microsomes, pH 7.4): 24 µL/min/mg | chromatographic logD ([5]; pH 7.4, read-out: Measured logD7.4): 3.2 | Papp A→B [6]: 9.1 ×10⁻⁶ cm/s | efflux ratio [6]: 2.9 | solubility kinetic at 20 h [7]: 6 µM (≈ 2.8 µg/mL)
Compound: Cn1c(=O)c2c(c3cc(Nc4ccnc(Cl)c4Cl)ccc31)N[C@@H](C1CC1)C(F)(F)CO2 [compound 15, (S)-2-Cyclopropyl-10-((2,3-dichloropyridin-4-yl)amino)-3,3-difluoro-7-methyl-1,2,3,4-tetrahydro-[1,4]oxazepino[2,3-c]quinolin-6(7H)-one]

Compound: (2S)-10-((2-(3-acetyl-3,8-diazabicyclo[3.2.1]octan-8-yl)-5-chloropyrimidin-4-yl)amino)-2-cyclopropyl-3,3-difluoro-7-methyl-1,2,3,4-tetrahydro-[1,4]oxazepino[2,3-c]quinolin-6(7H)-one [compound 7]
BCL6 NanoBRET pIC50 mean ([2]; Table S2): 7.3871 | IC90 ([2]; Table S2): 284 nM | IC50 [2, 9]: 41 nM | IC50 [2, 10]: 28.2 nM and 47.9 nM and 51.1 nM | BCL6 TR-FRET pIC50 mean (human BCL6 BTB domain): 8.728 | IC90 (human BCL6 BTB domain): 13.7 nM | IC50 (human BCL6 BTB domain; [11]): 1.9 nM | CLint H/M/R ([4]; one value given, mouse microsomal clearance per text): 50 μLmin^-1mg^-1 | Measured logD7.4 [5]: 2.5
